Data taken from patent US12458643B2, “Antidepressant/anxiolytic drug in which PAC1 receptor antagonist is used” (KAGOSHIMA UNIVERSITY, priority 2020, dated 2025).

Tests used:
normal mice = experiment: Open field test in normal mice; format: in vivo, mouse; conditions: normal male C57BL/6J mice, 30 mg/kg i.p., 60 min after administration, 10 min test
Procedure: The effects of PA-8 and PA-81004 on normal mice were evaluated by an open field test (test to measure spontaneous locomotion in a novel environment by exploiting the properties of mice to do exploratory behavior in such a novel environment, and using a 40 cm×40 cm box of 30 cm in height; spontaneous motor activity is measured from the total distance traveled; in this test, anxiety-like behavior is evaluated by exploiting the properties of mice to prefer to stay near walls and avoid light environments, and measuring a time spent in a center zone (20 cm×20 cm) or the number of entries thereto). Male C57BL/6J mice (8 to 12 weeks old) were acclimatized to a laboratory (illuminance: 40 lx) for 60 minutes. Then, a vehicle (10% DMSO solution; dissolved in saline; n=11), PA-8 (30 mg/kg; n=9) or PA-81004 (30 mg/kg; n=12) was intraperitoneally administered thereto (0.1 mL/10 g). After a lapse of 60 minutes after administration, the test was conducted for 10 minutes. The results are shown in FIG. 1 (A: total distance traveled, B: the number of center zone entries, C: time spent in the center zone). The effects of PA-9 and PA-915 on normal mice were evaluated by the open field test. Male C57BL/6J mice (8 to 12 weeks old) were acclimatized to a laboratory (illuminance: 40 lx) for 60 minutes. Then, a vehicle (10% DMSO solution; dissolved in saline; n=10), PA-9 (30 mg/kg; n=11) or PA-915 (30 mg/kg; n=10) was intraperitoneally administered thereto (0.1 mL/10 g). After a lapse of 60 minutes after administration, the test was conducted for 10 minutes. The results are shown in FIG. 5 (A: total distance traveled, B: the number of center zone entries, C: time spent in the center zone).

[1] = tested on: single-restraint stress mice; experiment: Single-restraint stress-induced anxiety-like behavior, open field test; format: in vivo, mouse; conditions: 30 mg/kg i.p. 30 min before 30 min restraint; 10 min test
Procedure: Male C57BL/6J mice (8 to 12 weeks old) were acclimatized to a laboratory (illuminance: 40 lx) for 60 minutes. Then, a vehicle (10% DMSO solution; dissolved in saline; n=11), PA-8 (30 mg/kg; n=11) or PA-81004 (30 mg/kg; n=8) was intraperitoneally administered thereto (0.1 mL/10 g). After a lapse of 30 minutes after administration, restraint stress (stress caused by holding the mice in tubes of 2.8 cm in diameter with a hole for breathing) was applied thereto for 30 minutes. The mice were allowed to freely explore an open field cage for 10 minutes from immediately after the completion of restraint. Mice that freely behaved in a home cage for 30 minutes without being held and without accessing water and food were used as a control (n=10). The results are shown in FIG. 9 (A: total distance traveled, B: the number of center zone entries, C: time spent in the center zone). The data was indicated by mean±standard error. **P<0.01, *P<0.05 (One-way ANOVA followed by Tukey-Kramer test). […] Male C57BL/6J mice (8 to 12 weeks old) were acclimatized to a laboratory (illuminance: 40 lx) for 60 minutes. Then, a vehicle (10% DMSO solution; dissolved in saline; n=10), PA-9 (30 mg/kg; n=13) or PA-915 (30 mg/kg; n=12) was intraperitoneally administered thereto (0.1 mL/10 g). After a lapse of 30 minutes after administration, restraint stress (stress caused by holding the mice in tubes of 2.8 cm in diameter with a hole for breathing) was applied thereto for 30 minutes. The mice were allowed to freely explore an open field cage for 10 minutes from immediately after the completion of restraint. Mice that freely behaved in a home cage for 30 minutes without being held and without accessing water and food were used as a control (n=10). The results are shown in FIG. 11 (A: total distance traveled, B: the number of center zone entries, C: time spent in the center zone). The data was indicated by mean±standard error. **P<0.01, *P<0.05 (One-way ANOVA followed by Tukey-Kramer test).

Structure (SMILES)	pharmacological action in open field test (total distance traveled, center zone entries, time in center zone) (normal mice)	effect on single-restraint stress-induced anxiety-like behavior (open field test) [1]
C=CCOc1ccc(C2CC(=O)Nc3nc(N)[nH]c(=O)c32)cc1OC (stereo not drawn) [PA-8]	no pharmacological action	improving effects
O=C(NCCc1c[nH]cn1)C1CC(=O)N(c2n[nH]c3ccccc23)C1 (stereo not drawn) [PA-9]	no pharmacological action	improving effects
Nc1nc2c(c(=O)[nH]1)C(c1cccc(OC(F)(F)F)c1)CC(=O)N2 (stereo not drawn) [PA-81004, 2-Amino-5-(3-trifluoromethoxyphenyl)-5,8-dihydro-3H,6H-pyrido[2,3-d]pyrimidine-4,7-dione]	no pharmacological action	improving effects
